From patent US20060105329A1, “Gene panel participating in liver regeneration” (priority 2001, published 2006)
Several values for one entry are separate records, joined by “and”; a condition that tells them apart may be missing. Equal entries are not always repeated.

Tests used:
[1] = test system: liver proliferating cell nucleus antigen (PCNA); assay: PCNA labeling index in liver of partially hepatectomized rats administered L-alanine; type: in vivo, rat
Description: (§1) L-alanine is known to have effect of accelerating liver regeneration (Maezono K et al., Hepatology 24(5), 1996, Effect of Alanine on D-Galactosamine-Induced Acute Liver Failure in Rats; Japanese Patent Laid-open Publication No. 5-229940). Therefore, rats were subjected to partial hepatectomy and orally administered with L-alanine at 18 and 21 hours after the hepatectomy, and then gene expressions at 24 hours after the hepatectomy were examined.
(§2) Five 6 week-old F344 male rats (120 g) were preliminarily fed for 6 days by giving feed CRF-1 (Oriental Yeast) and water and then divided into 2 groups (Group 1 and Group 2) each consisting of rats with the same body weight. At 24 hours before dissection, 70% partial hepatectomy was performed by the method by Higgins-Anderson (Higgins, G M and Anderson, R M, Arch. Pathol. 12, 186-191, 1931). On the day of autopsy, the rats were starved for 6 hours before dissection. At 6 and 3 hours before dissection, 2 g/10 ml/kg of L-alanine was orally administered as an aqueous solution containing 0.3% aqueous carboxymethylcellulose (CMC).
After the rats were killed by bleeding under anesthesia, the dissection was performed. Liver was extracted, weighed, cryopreserved, and then subjected to the mRNA expression measurement by the ATAC-PCR method. Further, liver samples were prepared to measure the liver proliferating cell nucleus antigen (PCNA) levels.
Further, the livers of rats administered with L-alanine were stained by using anti-PCNA antibodies (antibodies directed to proliferating cell nuclear antigen (PCNA), a replication factor that accelerates activity of DNA polymerase ä), and the PCNA labeling index was measured by the method of Tanaka et al. (Tanaka et al., Byori to Rinsho, 9 (6): 791-798, 1991).
Due to the L-alanine administration, the PCNA labeling index in the livers elevated as compared with the livers of the non-administered rats (Table 2). In Table 2, Ala+represents the L-alanine-administered group, and Ala-represents the L-alanine non-administered group. Thus, hepatocytes proliferation accelerating effect due to the L-alanine administration was observed.

[2] = test system: amino acid transporter system A (ATA2); assay: ATAC-PCR gene expression in liver of partially hepatectomized rats administered L-alanine, gene No. 5; type: in vivo, rat
Description: as §1
as §2, with “At 6 and 3 hours before dissection, 2 g/10 ml/kg of L-alanine was orally administered as an aqueous solution containing 0.3% aqueous carboxymethylcellulose (CMC).” left out
(§3) Gene expressions in rat liver in each group were measured by ATAC-PCR. […] In ATAC-PCR, among the genes in the gene panel, 117 types of which expression could be measured by ATAC-PCR using the restriction enzyme MboI were measured (those except for Nos. 12, 49, 52, 55, 58, 59, 61, 69, 73, 77, 83, 90, 93, 101, 102, 108, 130, 134, 135 and 136 mentioned in Table 1).
(§4) Further, the gene expressions in Groups 1 and 2 were measured by ATAC-PCR for the genes of the gene panel and compared. […]

[3] = test system: high mobility group protein 2; assay: ATAC-PCR gene expression in liver of partially hepatectomized rats administered L-alanine, gene No. 17; type: in vivo, rat
Description: as §1
as §2, with “At 6 and 3 hours before dissection, 2 g/10 ml/kg of L-alanine was orally administered as an aqueous solution containing 0.3% aqueous carboxymethylcellulose (CMC).” left out
as §3, §4

nuclear RNA helicase = assay: ATAC-PCR gene expression in liver of partially hepatectomized rats administered L-alanine, gene No. 36; type: in vivo, rat
Description: as §1
as §2, with “At 6 and 3 hours before dissection, 2 g/10 ml/kg of L-alanine was orally administered as an aqueous solution containing 0.3% aqueous carboxymethylcellulose (CMC).” left out
as §3, §4

[4] = test system: liver nuclear protein p47; assay: ATAC-PCR gene expression in liver of partially hepatectomized rats administered L-alanine, gene No. 46; type: in vivo, rat
Description: as §1
as §2, with “At 6 and 3 hours before dissection, 2 g/10 ml/kg of L-alanine was orally administered as an aqueous solution containing 0.3% aqueous carboxymethylcellulose (CMC).” left out
as §3, §4

[5] = test system: leukemia-associated cytosolic phosphoprotein stathmin; assay: ATAC-PCR gene expression in liver of partially hepatectomized rats administered L-alanine, gene No. 67; type: in vivo, rat
Description: as §1
as §2, with “At 6 and 3 hours before dissection, 2 g/10 ml/kg of L-alanine was orally administered as an aqueous solution containing 0.3% aqueous carboxymethylcellulose (CMC).” left out
as §3, §4

deoxy-UTPase (dUTPase) = assay: ATAC-PCR gene expression in liver of partially hepatectomized rats administered L-alanine, gene No. 68; type: in vivo, rat
Description: as §1
as §2, with “At 6 and 3 hours before dissection, 2 g/10 ml/kg of L-alanine was orally administered as an aqueous solution containing 0.3% aqueous carboxymethylcellulose (CMC).” left out
as §3, §4

[6] = test system: gene No. 117 in the gene panel; assay: ATAC-PCR gene expression in liver of partially hepatectomized rats administered L-alanine, gene No. 117; type: in vivo, rat
Description: as §1
as §2, with “At 6 and 3 hours before dissection, 2 g/10 ml/kg of L-alanine was orally administered as an aqueous solution containing 0.3% aqueous carboxymethylcellulose (CMC).” left out
as §3, §4

[7] = test system: rat genes involved in L-alanine metabolism; assay: Expression analysis of genes involved in L-alanine metabolism by Taqman PCR (SYBR Green) with L-alanine administration during liver regeneration; type: in vivo; conditions: L-alanine 2 g/10 ml/kg BW orally 18 and 21 hr after 70% partial hepatectomy vs 0.3% CMC control, liver at 24 hr, values only in FIGS. 2 to 4
Description: Expression changes were examined with L-alanine administration during liver regeneration regarding 59 types of rat genes involved in L-alanine metabolism extracted in Example 2.
Five 6 week-old F344 male rats (120 g) were fed for 6 days by giving feed CRF-1 (Oriental Yeast) and water and then divided into 2 groups (Group 1 and Group 2) each consisting of rats with the same body weight. At 24 hours before dissection, 70% partial hepatectomy (left lobe and intermediate lobe) was performed by the method of Higgins-Anderson (Higgins, G M and Anderson, R M, Arch. Pathol. 12, 186-191, 1931). On the day of autopsy, the rats were starved for 6 hours before the dissection. At 18 and 21 hours after the partial hepatectomy, 2 g/10 ml/kg BW of L-alanine was orally administered as an aqueous solution containing 0.3% carboxymethylcellulose (Group 1), and only 0.3% carboxymethylcellulose was orally administered as a control (Group 2).
Dissection was performed at 24 hours after the partial hepatectomy. After the rats were killed by bleeding under anesthesia, livers were extracted, weighed, cryopreserved and then subjected to the mRNA expression measurement by the Taqman PCR (SYBR Green) method. […]
All the Taqman PCR (SYBR Green) reactions were performed in duplicate, and the cycle threshold (CT) was calculated. […]

liver regeneration = conditions: Maezono K et al., Hepatology 24(5), 1996; JP 5-229940; cited from earlier work
ATA2 = molecular target: T1, ATA2 (Rattus norvegicus, UniProt Q9JHE5); conditions: Ala transport activity of ATA2 inhibited by treatment with MeAIB; Freeman T L et al., Hepatology 1999; cited from earlier work
T1 sequence (Q9JHE5 1-504): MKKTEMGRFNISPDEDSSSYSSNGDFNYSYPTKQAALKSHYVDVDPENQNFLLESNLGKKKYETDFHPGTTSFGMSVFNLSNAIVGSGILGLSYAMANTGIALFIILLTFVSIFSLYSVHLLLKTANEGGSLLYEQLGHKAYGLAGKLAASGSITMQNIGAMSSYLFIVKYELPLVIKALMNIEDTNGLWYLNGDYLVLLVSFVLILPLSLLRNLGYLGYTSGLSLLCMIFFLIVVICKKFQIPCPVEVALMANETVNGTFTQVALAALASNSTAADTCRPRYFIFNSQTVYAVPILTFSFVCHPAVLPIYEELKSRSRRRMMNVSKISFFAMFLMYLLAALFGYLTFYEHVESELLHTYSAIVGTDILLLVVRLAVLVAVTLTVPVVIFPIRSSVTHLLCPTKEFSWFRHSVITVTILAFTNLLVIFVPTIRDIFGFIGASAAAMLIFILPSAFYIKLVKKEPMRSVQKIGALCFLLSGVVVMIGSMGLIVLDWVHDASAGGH

[8] = individual rats 2-1, 2-2 (Group 2, taken as Ala+), L-alanine 2 g/10 ml/kg orally 18 and 21 hr after 70% partial hepatectomy, liver at 24 hr
[9] = liver 24 hr after hepatectomy with L-alanine, ratio to gene panel expression at 0 hour
[10] = ATAC-PCR, liver 24 hr after hepatectomy, L-alanine-administered vs non-administered group

With `C[C@H](N)C(=O)O` [L-alanine] the “PCNA labeling index in the livers as compared with non-administered rats” value ([1]; L-alanine orally 18 and 21 hr after partial hepatectomy, liver at 24 hr) was “elevated”, the “PCNA Labeling Index (%), Mean” value ([1]; group mean of rats 2-1, 2-2 (taken as Ala+), non-administered group mean 0.6%, liver 24 hr after hepatectomy) was 64.7% and the “PCNA Labeling Index (%)” value [1, 8] was 65.5% and 64.0%. The “PCNA Negative cells” value [1, 8] was 247 and 240, the PCNA positive cells [1, 8] was 468 and 426 and the “Ala+, 24 hr/Ala-, 24 hr expression ratio, gene No. 5” value ([2]; 24 h) was 4.8. The “Ala+ 24 hr relative expression value based on expression before hepatectomy, gene No. 5” value [2, 9] was 4.8, the “Ala+, 24 hr/Ala-, 24 hr expression ratio, gene No. 17” value [3, 10] was 5.5 and the “Ala+ 24 hr relative expression value based on expression before hepatectomy, gene No. 17” value [3, 9] was 228.3. The “Ala+, 24 hr/Ala-, 24 hr expression ratio, gene No. 36” value (nuclear RNA helicase; [10]) was 4.6, the “Ala+ 24 hr relative expression value based on expression before hepatectomy, gene No. 36” value (nuclear RNA helicase; [9]) was 25.8 and the “Ala+, 24 hr/Ala-, 24 hr expression ratio, gene No. 46” value [4, 10] was 4.4. For the same compound, the “Ala+ 24 hr relative expression value based on expression before hepatectomy, gene No. 46” value [4, 9] was 11.4, the “Ala+, 24 hr/Ala-, 24 hr expression ratio, gene No. 67” value [5, 10] was 4.2 and the “Ala+ 24 hr relative expression value based on expression before hepatectomy, gene No. 67” value [5, 9] was 25.6. For the same compound, the “Ala+, 24 hr/Ala-, 24 hr expression ratio, gene No. 68” value (deoxy-UTPase (dUTPase); [10]) was 3.5, the “Ala+ 24 hr relative expression value based on expression before hepatectomy, gene No. 68” value (deoxy-UTPase (dUTPase); [9]) was 24.9 and the “Ala+, 24 hr/Ala-, 24 hr expression ratio, gene No. 117” value [6, 10] was 3.2. The “Ala+ 24 hr relative expression value based on expression before hepatectomy, gene No. 117” value [6, 9] was 0.6, the “Expression level of genes involved in L-alanine metabolism (genes of Table 7 and Nos. 139, 140, 151)” value [7] was “changes in expression level due to the L-alanine administration were observed” and the “effect on liver regeneration” value (liver regeneration) was “accelerate liver regeneration”.
For `CNC(C)(C)C(=O)O` [MeAIB, alpha-(methylamino)isobutyric acid], the “uptake of [3H]thymidine into DNA” value (ATA2) is given as “decreased”.
